This note sets out measurements from US20060063764A1, “Insect repellents” (Givaudan SA, priority 2002, published 2006).

The structures appear in SMILES notation. Where “and” joins values, the source holds several entries; their conditions need not be identical. Identical values can stand only once.

The assay deals with German cockroaches (Blatella Germanica). Kind of assay: Cockroach repellency on partially treated melamine-formaldehyde laminate surface (harbourage choice test). The format is in vivo. To be noted: 20 mg/m^2; for Number of Cockroaches present, Treated Section / Number of Cockroaches present, Untreated Section / Number of Cockroaches, Dead: single replicate, n = 20; for Number of Cockroaches present, Treated Section, Total of 4 replicates / Number of Cockroaches present, Untreated Section, Total of 4 replicates / Number of Cockroaches, Dead, Total of 4 replicates: total of 80; for Percentage Present on treated section, Average / Percentage Present on untreated section, Average: Average of days 1, 2, 3. On the procedure: The effectiveness of compounds of formula I as insect repellents is determined using German cockroaches exposed to a melamine-formaldehyde laminate surface partially treated/partially untreated with a test compound of formula I.
The study was conducted in an air-conditioned laboratory at a temperature of 22°±2° ° C. under a normal day/night cycle, using German cockroaches (Blatella Germanica) of mixed sex and age. The study was conducted over a 3 day period and the repellent effectiveness was assessed 1, 2 and 3 days after cockroach introduction.
One half of a rectangle of laminate 40 cm×30 cm was treated at 20 mg/m^2 of a test compound of formula I. This was achieved by soaking a paper wipe (“Rag on a Roll” ca 20 cm×20 cm) in a solution of the test compound in ethanol, squeezing out the excess liquid and wiping over the surface to give the required coverage. This was checked by weighing the cloth after application. The surface was allowed to dry. The other half of the rectangle was wiped with ethanol alone (untreated surface).
The treated laminate rectangle was placed on the bench and a plastic container was placed on the rectangle. This had been treated with “Fluon” (trade mark), a sprayable fluoropolymer, to prevent cockroach escape.
Two sheets of laminate (10 cm×10 cm) were placed on the laminate, one on the treated surface and one on the untreated surface. This acted as a cockroach harbourage. The laminate sheet to be used in the treated section was treated at the same rate as the treated laminate. The laminate was placed on two 1 cm high bottle tops to allow cockroaches access under the laminate.
20 German cockroaches were added (5 adults and 15 nymphs) to the centre of the laminate. No food and water was supplied for these cockroaches.
At 1, 2 and 3 days after cockroach introduction the number of cockroaches under each harbourage was counted. After each count the harbourage position was changed to avoid the possibility of habituation to one location, the harbourages were replaced and new cockroaches were added to replace any dead cockroaches.
The above was repeated 3 times to provide a total of 4 replicates.
The methodology of Example 2 was repeated for all of the compounds set forth in Example 1.

The mark [1] stands for this setting: 1 day after cockroach introduction.
Setting [2] is: 2 days after cockroach introduction.
The mark [3] stands for this setting: 3 days after cockroach introduction.

Consider `CNC(=O)O[C@@H]1C[C@H](C)CC[C@H]1C(C)C` [Methyl-Carbamic Acid (−)-Menthyl Ester, Methyl-carbamic acid (−)-menthyl ester], for which, under setting [1], the “Number of Cockroaches present, Treated Section” value was 0 (2×) and 3 and 1; the “Number of Cockroaches present, Untreated Section” value is 20 and 19 (2×) and 17; the “Number of Cockroaches, Dead” value is 0 (3×) and 1; the “Number of Cockroaches present, Treated Section, Total of 4 replicates” value stood at 4. Under setting [1], the “Number of Cockroaches present, Untreated Section, Total of 4 replicates” value came to 75 and the “Number of Cockroaches, Dead, Total of 4 replicates” value worked out at 1. Moreover, under setting [2], the “Number of Cockroaches present, Treated Section” value was 1 (2×) and 0 (2×); the “Number of Cockroaches present, Untreated Section” value is 19 (3×) and 20; the “Number of Cockroaches, Dead” value is 0 (3×) and 1; the “Number of Cockroaches present, Treated Section, Total of 4 replicates” value amounted to 2. In addition, under setting [2], the “Number of Cockroaches present, Untreated Section, Total of 4 replicates” value came out at 77 and the “Number of Cockroaches, Dead, Total of 4 replicates” value is 1. For the same molecule, under setting [3], the “Number of Cockroaches present, Treated Section” value is 0 (3×) and 1; the “Number of Cockroaches present, Untreated Section” value was 20 (3×) and 19; the “Number of Cockroaches, Dead” value is reported as 0; the “Number of Cockroaches present, Treated Section, Total of 4 replicates” value is on record as 1. Further, under setting [3], the “Number of Cockroaches present, Untreated Section, Total of 4 replicates” value came to 79 and the “Number of Cockroaches, Dead, Total of 4 replicates” value is 0.

Take `CNC(=O)O[C@@H]1C[C@H](C)CC[C@H]1C(C)C` [drawing 13]: the “Percentage Present on treated section, Average” value was determined as 3.0% and the “Percentage Present on untreated section, Average” value came out at 97.0%. For the same molecule, under “1 day after treatment”, the “Percentage Present on treated section” value came out at 5.1% and the “Percentage Present on untreated section” value is recorded as 94.9%. For the same molecule, where the note is “2 days after treatment”, the “Percentage Present on treated section” value was determined as 2.5% and the “Percentage Present on untreated section” value was found to be 97.5%. Further, under “3 days after treatment”, the “Percentage Present on treated section” value is listed as 1.3% and the “Percentage Present on untreated section” value is 98.7%.

Take `CCCCNC(=O)O[C@@H]1C[C@H](C)CC[C@H]1C(C)C`: the “Percentage Present on treated section, Average” value is given as 10.5% and the “Percentage Present on untreated section, Average” value was 89.6%. For the setting “1 day after treatment”, the “Percentage Present on treated section” value is recorded as 6.3% and the “Percentage Present on untreated section” value is recorded as 93.7%. For the same molecule, for the setting “2 days after treatment”, the “Percentage Present on treated section” value is given as 17.5% and the “Percentage Present on untreated section” value came out at 82.5%. Moreover, for the setting “3 days after treatment”, the “Percentage Present on treated section” value amounted to 7.5% and the “Percentage Present on untreated section” value was determined as 92.5%.

With `CC(C)[C@@H]1CC[C@@H](C)C[C@H]1OC(=O)N1CCCCC1`, the “Percentage Present on treated section, Average” value worked out at 8.4% and the “Percentage Present on untreated section, Average” value turned out to be 91.6%. Where the note is “1 day after treatment”, the “Percentage Present on treated section” value worked out at 10.0% and the “Percentage Present on untreated section” value turned out to be 90.0%. For the setting “2 days after treatment”, the “Percentage Present on treated section” value was 11.3% and the “Percentage Present on untreated section” value turned out to be 88.7%. Further, for the setting “3 days after treatment”, the “Percentage Present on treated section” value was determined as 3.9% and the “Percentage Present on untreated section” value stood at 96.1%.

Take `CCN(CC)C(=O)O[C@@H]1C[C@H](C)CC[C@H]1C(C)C`: the “Percentage Present on treated section, Average” value is given as 4.2% and the “Percentage Present on untreated section, Average” value was 95.8%. Where the note is “1 day after treatment”, the “Percentage Present on treated section” value was found to be 7.6% and the “Percentage Present on untreated section” value was 92.4%. Besides, where the note is “2 days after treatment”, the “Percentage Present on treated section” value came to 2.5% and the “Percentage Present on untreated section” value was found to be 97.5%. Further, for the setting “3 days after treatment”, the “Percentage Present on treated section” value worked out at 2.5% and the “Percentage Present on untreated section” value stood at 97.5%.

On to `COC(=O)CCNC(=O)O[C@@H]1C[C@H](C)CC[C@H]1C(C)C`, for which the “Percentage Present on treated section, Average” value was 8.0% and the “Percentage Present on untreated section, Average” value is recorded as 92.0%. In addition, where the note is “1 day after treatment”, the “Percentage Present on treated section” value worked out at 11.4% and the “Percentage Present on untreated section” value was found to be 88.6%. Besides, for the setting “2 days after treatment”, the “Percentage Present on treated section” value was determined as 2.5% and the “Percentage Present on untreated section” value worked out at 97.5%. Under “3 days after treatment”, the “Percentage Present on treated section” value worked out at 10.0% and the “Percentage Present on untreated section” value stood at 90.0%.

Turning to `CC(C)[C@@H]1CC[C@@H](C)C[C@H]1OC(=O)N1CCCC1`, the “Percentage Present on treated section, Average” value turned out to be 7.6% and the “Percentage Present on untreated section, Average” value is 92.4%. In addition, for the setting “1 day after treatment”, the “Percentage Present on treated section” value is listed as 2.5% and the “Percentage Present on untreated section” value came to 97.5%. Besides, for the setting “2 days after treatment”, the “Percentage Present on treated section” value is listed as 7.5% and the “Percentage Present on untreated section” value came to 92.5%. For the same molecule, under “3 days after treatment”, the “Percentage Present on treated section” value is given as 12.7% and the “Percentage Present on untreated section” value was determined as 87.3%.

For `CC(C)[C@@H]1CC[C@@H](C)C[C@H]1OC(=O)Nc1ccccc1`, the “Percentage Present on treated section, Average” value worked out at 2.9% and the “Percentage Present on untreated section, Average” value worked out at 97.1%. For the setting “1 day after treatment”, the “Percentage Present on treated section” value is on record as 2.5% and the “Percentage Present on untreated section” value is given as 97.5%. In addition, where the note is “2 days after treatment”, the “Percentage Present on treated section” value turned out to be 3.7% and the “Percentage Present on untreated section” value is reported as 96.3%. Further, for the setting “3 days after treatment”, the “Percentage Present on treated section” value stood at 2.5% and the “Percentage Present on untreated section” value was 97.5%.

As to `CC(C)[C@@H]1CC[C@@H](C)C[C@H]1OC(=O)N1CCOCC1`, the “Percentage Present on treated section, Average” value stood at 20.0% and the “Percentage Present on untreated section, Average” value amounted to 80.0%. Moreover, for the setting “1 day after treatment”, the “Percentage Present on treated section” value amounted to 17.5% and the “Percentage Present on untreated section” value was 82.5%. Besides, where the note is “2 days after treatment”, the “Percentage Present on treated section” value was 17.5% and the “Percentage Present on untreated section” value is 82.5%. Further, where the note is “3 days after treatment”, the “Percentage Present on treated section” value was 25.0% and the “Percentage Present on untreated section” value came out at 75.0%.

Take `CC(C)CNC(=O)O[C@@H]1C[C@H](C)CC[C@H]1C(C)C`: the “Percentage Present on treated section, Average” value was 21.7% and the “Percentage Present on untreated section, Average” value is listed as 78.3%. Besides, under “1 day after treatment”, the “Percentage Present on treated section” value is on record as 31.3% and the “Percentage Present on untreated section” value came out at 68.7%. For the same molecule, where the note is “2 days after treatment”, the “Percentage Present on treated section” value turned out to be 17.5% and the “Percentage Present on untreated section” value amounted to 82.5%. Further, under “3 days after treatment”, the “Percentage Present on treated section” value is given as 16.3% and the “Percentage Present on untreated section” value is listed as 83.7%.
